Assay results reported in US20200385789A1, “METHODS OF ASSESSING TELOMERES” (Children's Medical Research Institute, priority 2017, published 2020).

Tested on: IMR90 primary human foetal lung fibroblasts
Experiment: Telomere length by telomere fibre-FISH (TFF) after exposure of cells to inhibitors
Format: cell-based
Settings: 0.1 μM aphidicolin and/or 0.2 μM INK128, harvested 7 days after exposure, versus DMSO alone (untreated)
Protocol: IMR90 primary human foetal lung fibroblasts were plated and 1 day later were exposed to aphidicolin, mTORi, aphidicolin+mTORi, or DMSO alone (untreated). Cells were harvested a further 7 days later and telomere length was assessed by TFF. (A) Representative imaging data of DNA fibres: Left panel—expanded view of telomere fibre fish imaging data. Center and right panels—close up of the boxes 1-5 shown on the left panel. Boxes are drawn around the telomere signals and the length in μm and kb is indicated. (B). Telomere length presented in a Tukey box plot. “+” is the mean, **=P<0.01. TFF was used to measure telomere length in cells exposed to one or both of two inhibitors: aphidicolin and an mTOR inhibitor. Cells (IMR90 primary human foetal lung fibroblasts) were plated and one day later were exposed to 0.1 μM aphidicolin, 0.2 μM of INK128 (an mTOR inhibitor), aphidicolin+INK128, or DMSO alone (untreated). Cells were harvested a further 7 days later and telomere length was assessed by TFF, essentially as described above.

SMILES	Telomere length compared with untreated cells
C[C@@]1(CO)[C@H](O)CC[C@@]2(C)[C@H]1CC[C@H]1C[C@@H]3C[C@@]12CC[C@]3(O)CO [aphidicolin]	telomere length in untreated cells was significantly greater
CC(C)n1nc(-c2ccc3oc(N)nc3c2)c2c(N)ncnc21 [INK128]	telomere length in untreated cells was significantly greater
